Data from patent publication US10414778B2, “Methods for treatment of resistant cancer” (New Mexico Tech University Research Park Corporation, priority 2016, dated 2019).
Like-named read-outs stand apart in the source and are kept apart here.

How the values were obtained:
HeLa cells = assay: MTT in vitro growth inhibition assay, HeLa; type: cell-based, human; conditions: Homo sapiens, HeLa, two independent experiments
Method: (§1) Human cancer cell lines were obtained from the American Type Culture Collection (ATCC, Manassas, Va., USA), the European Collection of Cell Culture (ECACC, Salisbury, UK), and the Deutsche Sammlung von Mikroorganismen und Zellkulturen (DSMZ, Braunschweig, Germany). Human cervical adenocarcinoma HeLa cells were cultured in DMEM supplemented with 10% fetal bovine serum (FBS). Human mammary carcinoma MCF-7 cells were cultured in RPMI supplemented with 10% FBS. The U87 cells (ATCC HTB-14) were cultured in DMEM culture medium, while the A549 cells (DSMZ ACC107) were cultured in RPMI culture medium supplemented with 10% heat-inactivated FBS. The GBM Hs683 (ATCC HTB-138) and the T98G (ATCC CRL-1690) cell lines were cultivated in DMEM supplemented with 10% FBS. The GBM U251 cells (ECACC code 09063001) were cultured in 10% MEM. The human uterine sarcoma MES-SA and MES-SA/Dx5 cells were cultured in RPMI-1640 medium supplemented with 10% FBS with MES SA/Dx5 maintained in the presence of 500 nM Doxorubicin (Sigma™). The U373 glioblastoma cells (ECACC 08061901) were cultured in RPMI culture medium supplemented with 10% heat-inactivated FBS.
Spirodienones 4a-m were subjected to in vitro growth inhibition 3-(4,5-dimethylthiazol-2-yl)-2,5-diphenyltetrazolium bromide (MTT) assays against two cell lines, human HeLa cervical and MCF-7 breast adenocarcinomas.
(§2) All compounds were dissolved in DMSO at a concentration of either 100 mM or 50 mM prior to cell treatment. The cells were trypsinized and seeded at various cell concentrations depending on the cell type. The cells were grown for 24 h to 72 h, treated with compounds at concentrations ranging from 0.001 to 100 μM, and incubated for 48, 72, or 96 h in 100 or 200 μL media depending on the cell line used. Cells treated with 0.1% DMSO were used as a negative control, and cells treated with 1 μM phenyl arsine oxide (PAO) were used as a positive control.
To determine the activities of the compounds of the invention toward cancer cells, cell lines treated with different compounds were subjected to an in vitro MTT growth assay using human cervical cancer (HeLa) and human adenocarcinoma (MCF-7) cell lines. The MTT growth assay is a colorimetric assay that measures the metabolic activity of cells via reduction of 3-(4,5-dimethylthiazol-2-yl)-2,5-diphenyltetrazolium bromide (MTT). The reduction of MTT occurs in metabolically-active cells and is characterized by a purple color, which can be quantified via spectrophotometry. A higher absorbance reading indicates a metabolically-active cell, while a low absorbance reading indicates low metabolic activity due to, for example, inhibition of cellular proliferation or cell death.
The values in TABLE 4 are the mean and standard deviation calculated from two independent experiments, which were performed in 4 replicates.

U373 glioblastoma cells = assay: MTT growth inhibition, U373 glioma; type: cell-based, human; conditions: Homo sapiens, U373 MG
Method: as §1, §2
(§3) Compound 4l was evaluated for in vitro growth inhibition against a panel of cancer cell lines, including U373, U251, U87, T98G, human GBM, and A549 NSCLC. […] Compound 4l was also evaluated for in vitro growth inhibition against the apoptosis-sensitive tumor model Hs683 anaplastic oligodendroglioma as a reference.
(§4) Due to their high potencies, compounds 5l and 5g were used to determine the effects of the compounds on drug-resistant tumor cells. Drug-resistant cell lines (i.e., glioma: Hs683, U373, U251, U87, T98G; lung cancer: A549, H2073; uterine carcinoma: MES-SA/Dx5) were complemented with drug-sensitive cell lines, H1993 lung cancer and MES-SA uterine cancer, which were used as controls. Bulbispermine and paclitaxel were also used as controls. The GI50 values were calculated after 48-96 hours of treatment with the indicated compounds in replicate using the MTT growth assay.

U251 cells = assay: MTT growth inhibition, U251 glioma; type: cell-based, human; conditions: Homo sapiens
Method: as §1, §2, §3, §4

U87 cells = assay: MTT growth inhibition, U87 glioma; type: cell-based, human; conditions: Homo sapiens, U-87 MG
Method: as §1, §2, §3, §4

T98G cells = assay: MTT growth inhibition, T98G glioma; type: cell-based, human; conditions: Homo sapiens, T98G
Method: as §1, §2, §3, §4

H1993 cells = assay: MTT growth inhibition, H1993 NSCLC; type: cell-based; conditions: Homo sapiens
Method: as §2
Drug-resistant cell lines (i.e., glioma: Hs683, U373, U251, U87, T98G; lung cancer: A549, H2073; uterine carcinoma: MES-SA/Dx5) were complemented with drug-sensitive cell lines, H1993 lung cancer and MES-SA uterine cancer, which were used as controls. […] The GI50 values were calculated after 48-96 hours of treatment with the indicated compounds in replicate using the MTT growth assay.

H2073 cells = assay: MTT growth inhibition, H2073 drug-resistant NSCLC; type: cell-based, human; conditions: for decrease in potency toward H2073 cells relative to H1993 cells: H2073 versus H1993; for GI50: Homo sapiens, NCI-H2073, MTT
Method: NSCLC cell lines H1993 and H2073 were obtained from the Hamon Center for Therapeutic Oncology Research at UT Southwestern Medical Center and cultured in RPMI-1640 medium (Mediatech, VA, USA) supplemented with 5% heat-inactivated FBS (Mediatech™), 100 units/mL penicillin and 0.1 mg/mL streptomycin (Sigma™). All cell lines were cultured in T25 flasks, maintained, and grown at 37° C., 95% humidity, 5% CO2.
as §2
Spirodienone 4l was evaluated against patient-derived NSCLC cell line H1993 and its drug-resistant variant, H2073. The patient-derived NSCLC cell line […] was obtained from a regrown tumor at a primary site after a patient relapsed several months later.
as §4
Compound 5l was further tested to determine the effect of compounds of the invention on drug-resistant tumor cells. A patient-derived non-small cell lung cancer (NSCLC) line, H1993, and the drug-resistant variant of H1993, H2073, were used for testing. The H1993 cell line was obtained from a lymph node metastasis isolated from the patient prior to chemotherapy. The H2073 cell line was derived from a regrown tumor at the primary site after the patient had relapsed several months after administration of the chemotherapy regimen.

| SMILES | GI50 (HeLa cells; Table 4, 48-hour treatment, mean and standard deviation, read-out: HeLa Cell Viability GI50) [µM] | GI50 (U373 glioblastoma cells; Table 5, 48-96 hours of treatment, read-out: GI50, Glioma U373) [µM] | GI50 (U251 cells; U-251, Table 5, 48-96 hours of treatment, read-out: GI50, Glioma U251) [µM] | GI50 (U87 cells; Table 5, 48-96 hours of treatment, read-out: GI50, Glioma U87) [µM] | GI50 (T98G cells; Table 5, 48-96 hours of treatment, read-out: GI50, Glioma T98G) [µM] | GI50 (H1993 cells; NCI-H1993, Table 5, 48-96 hours of treatment, read-out: GI50, Lung Cancer H1993) [µM] | decrease in potency toward H2073 cells relative to H1993 cells (H2073 cells) | GI50 (H2073 cells; Table 5, 48-96 hours of treatment, read-out: GI50, Lung Cancer H2073) [µM] | GI50 (HeLa cells; 48 h treatment, ± SD, read-out: cell viability GI50, HeLa) [µM] | GI50 (U373 glioblastoma cells; Table 3, 48-96 h treatment, read-out: GI50 in vitro values, glioma U373) [µM] | GI50 (U251 cells; U-251, Table 3, 48-96 h treatment, read-out: GI50 in vitro values, glioma U251) [µM] | GI50 (U87 cells; Table 3, 48-96 h treatment, read-out: GI50 in vitro values, glioma U87) [µM] | GI50 (T98G cells; Table 3, 48-96 h treatment, read-out: GI50 in vitro values, glioma T98G) [µM] | GI50 (H1993 cells; NCI-H1993, Table 3, 48-96 h treatment, read-out: GI50 in vitro values, lung cancer H1993) [µM] | GI50 (H2073 cells; Table 3, 48-96 h treatment, read-out: GI50 in vitro values, lung cancer H2073) [µM] |
| --- | --- | --- | --- | --- | --- | --- | --- | --- | --- | --- | --- | --- | --- | --- | --- |
| O=C1C=C[C@]23CC[N@](Cc4c2sc2ccccc42)[C@H]3C1 [Compound 5l] | 6.2 ± 1.13 | 7 | 5 | 5 | 7 | 3 | less drastic | 11 | – | – | – | – | – | – | – |
| O=C1C=CC2(C=C1)CCN(C(=O)C(F)(F)F)Cc1c2sc2ccccc12 [Compound 4l] | – | – | – | – | – | – | significantly less pronounced than that observed with paclitaxel | – | 10 | 7 | 4 | 6 | 15 | 12 | 50 |
